Here are results for 1 molecule from ChEMBL document CHEMBL6109116, “Peripherally Restricted Fused Heterocyclic Peptidomimetic Multifunctional Opioid Agonists as Novel, Potent Analgesics” (ACS Med Chem Lett, 2025).

For one data set, the target named is Mu-type opioid receptor (Rattus norvegicus, UniProt P33535). Put plainly: Displacement of [3H]-DAMGO from rat cortical membrane MOR assessed as inhibition constant incubated for 2 hrs by Wallac Betaplate liquid scintillation counting analysis. It counts as cell membranes, Cortex.
The target of data set [1] is Kappa-type opioid receptor (Cavia porcellus, UniProt P41144). Put plainly: Displacement of [3H]U69593 from guinea pig KOR assessed as inhibition constant incubated for 2 hrs by Wallac Betaplate liquid scintillation counting analysis.
In data set [2] the target is Delta-type opioid receptor (Rattus norvegicus, UniProt P33533). Put plainly: Displacement of [3H]-DPDPE from rat cortical membrane DOR assessed as inhibition constant incubated for 2.5 hrs by Wallac Betaplate liquid scintillation counting analysis. Format: cell membranes, Cortex.
Data set [3] has as its system Mus musculus. Nature of the data set: Antinociceptive activity in male C57BL/6J mouse at 10 nmol, ICV administered for 8 hrs by 55 degreeC warm-water tail-withdrawal assay. It counts as functional, organism-based.
The target of data set [4] is Mu-type opioid receptor (Rattus norvegicus) (UniProt P33535). Nature of the data set: Partial agonist activity at rat MOR extracted from CHO cell membrane assessed as stimulation of [35S]GTPgammaS binding at 1 to 10 uM incubated for 60 mins by liquid scintillation counting assay. To be noted: dose 1-10 µM. Format: functional, cell membranes.
The target in data set [5] is Delta-type opioid receptor (Mus musculus) (UniProt P32300). Nature of the data set: Partial agonist activity at mouse DOR extracted from CHO cell membrane assessed as stimulation of [35S]GTPgammaS binding at 1 to 10 uM incubated for 60 mins by liquid scintillation counting assay. It counts as functional, cell membranes. To be noted: filed as partial agonist, dose 1-10 µM.

Data set [6] concerns the target Kappa-type opioid receptor (Homo sapiens) (UniProt P41145). Put plainly: Partial agonist activity at human KOR extracted from CHO cell membrane assessed as stimulation of [35S]GTPgammaS binding at 1 to 10 uM incubated for 60 mins by liquid scintillation counting assay. It counts as functional, cell membranes. To be noted: filed as partial agonist, dose 1-10 µM.
Data set [7] has as its system Mus musculus. Nature of the data set: Antinociceptive activity in MOR knockout male C57BL/6J mouse model at 10 nmol, ICV administered for 10 mins by 55 degreeC warm-water tail-withdrawal assay. It counts as functional, organism-based.
Data set [8] relates to Mus musculus. Nature of the data set: Antinociceptive activity in KOR knockout male C57BL/6J mouse model at 10 nmol, ICV administered for 10 mins by 55 degreeC warm-water tail-withdrawal assay. It counts as functional, organism-based.
Data set [9] has as its system Mus musculus. Nature of the data set: Antinociceptive activity in wild type male C57BL/6J mouse model at 10 nmol, ICV preadministered with naltrindole for 20 mins followed by compound administration for 10 mins. It counts as functional, organism-based.
The species entered for data set [10] is Mus musculus. Put plainly: Antinociceptive activity in male C57BL/6J mouse measured after 10 min by 55 degreeC warm-water tail-withdrawal assay. Format: functional.
For data set [11], the system named is Mus musculus. Nature of the data set: Antinociceptive activity in male C57BL/6J mouse preadministered with compound for 10 mins followed by acetic acid administration and measured after 15 to 30 min by Acetic acid stretching assay (AcAS). It counts as functional. The conditions noted are these: time 25-40 min.
Data set [12] in a line: Selectivity ratio of ED50 for antinociceptive activity in male C57BL/6J mouse at 10 mg/kg, ip measured after 10 min by 55 degreeC warm-water tail-withdrawal assay to ED50 for antinociceptive activity in male C57BL/6J mouse preadministered with compound for 10 mins followed by acetic acid administration and measured after 15 to 30 min by Acetic acid stretching assay (AcAS). It counts as functional.

Data set [13] concerns Mus musculus. Put plainly: Antinociceptive activity in male C57BL/6J mouse assessed as peripheral restriction at 30 mg/kg, ip by 55 degreeC warm-water tail-withdrawal assay. It counts as functional.
The subject of data set [14] is Mus musculus. Nature of the data set: Antinociceptive activity in male C57BL/6J mouse assessed as peripheral restriction at 30 mg/kg, ip pre-treated with naloxone methiodide at 30 nmol, ICV for 30 min by 55 degreeC warm-water tail-withdrawal assay. It counts as functional.
In data set [15] the test system is Mus musculus. Put plainly: Antinociceptive activity in male C57BL/6J mouse assessed as peripheral restriction at 30 mg/kg, ip pre-treated with naloxone methiodide at 30 mg/kg, SC for 30 min by 55 degreeC warm-water tail-withdrawal assay. Format: functional.
The test system of data set [16] is Mus musculus. Put plainly: Antinociceptive activity in male C57BL/6J mouse at 30 mg/kg, po by 55 degreeC warm-water tail-withdrawal assay. It counts as functional, organism-based. The conditions noted are these: time <= 60.0 min.
The nature of data set [17]: Toxicity in C57BL/6J mouse assessed as effect on locomotor activity at 30 mg/kg, ip measured up to 120 min. It counts as organism-based. To be noted: in vivo, 2 h.
A short description of data set [18]: Toxicity in C57BL/6J mouse assessed as respiratory depression at 30 mg/kg, ip measured after 20 mins. The conditions noted are these: in vivo. Format: organism-based.
Data set [19] is described as follows: Toxicity in C57BL/6J mouse assessed as increase in ambulation at 30 mg/kg, ip measured up to 120 min. Format: organism-based. To be noted: in vivo, 2 h.

Active and inactive are the calls of the source. The rule behind the calls is not given here.

Mu-type opioid receptor (Rattus norvegicus), sequence (P33535 whole entry): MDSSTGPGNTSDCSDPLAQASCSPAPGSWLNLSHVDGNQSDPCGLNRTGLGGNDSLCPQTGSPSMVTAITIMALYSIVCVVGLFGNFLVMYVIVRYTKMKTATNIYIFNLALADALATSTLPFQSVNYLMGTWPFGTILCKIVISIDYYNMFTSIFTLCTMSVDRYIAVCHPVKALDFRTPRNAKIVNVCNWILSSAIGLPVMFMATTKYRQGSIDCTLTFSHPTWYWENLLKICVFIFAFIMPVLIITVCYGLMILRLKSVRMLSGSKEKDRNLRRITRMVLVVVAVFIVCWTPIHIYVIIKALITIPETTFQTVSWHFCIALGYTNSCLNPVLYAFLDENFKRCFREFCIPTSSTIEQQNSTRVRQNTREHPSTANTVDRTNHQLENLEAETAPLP
Mu-type opioid receptor, sequence (P33535 whole entry): as above
Delta-type opioid receptor, sequence (P33533 whole entry): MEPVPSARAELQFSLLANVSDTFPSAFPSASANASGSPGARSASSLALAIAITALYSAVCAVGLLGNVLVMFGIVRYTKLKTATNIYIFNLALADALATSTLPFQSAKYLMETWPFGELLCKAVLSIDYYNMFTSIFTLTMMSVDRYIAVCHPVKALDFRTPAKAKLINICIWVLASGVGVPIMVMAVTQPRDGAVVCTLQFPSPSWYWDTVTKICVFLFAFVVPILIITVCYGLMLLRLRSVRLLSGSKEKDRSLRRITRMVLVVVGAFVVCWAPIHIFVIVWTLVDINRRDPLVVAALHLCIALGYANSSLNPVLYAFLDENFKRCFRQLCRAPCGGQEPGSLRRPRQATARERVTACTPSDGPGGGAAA
Kappa-type opioid receptor (Homo sapiens), sequence (P41145 whole entry): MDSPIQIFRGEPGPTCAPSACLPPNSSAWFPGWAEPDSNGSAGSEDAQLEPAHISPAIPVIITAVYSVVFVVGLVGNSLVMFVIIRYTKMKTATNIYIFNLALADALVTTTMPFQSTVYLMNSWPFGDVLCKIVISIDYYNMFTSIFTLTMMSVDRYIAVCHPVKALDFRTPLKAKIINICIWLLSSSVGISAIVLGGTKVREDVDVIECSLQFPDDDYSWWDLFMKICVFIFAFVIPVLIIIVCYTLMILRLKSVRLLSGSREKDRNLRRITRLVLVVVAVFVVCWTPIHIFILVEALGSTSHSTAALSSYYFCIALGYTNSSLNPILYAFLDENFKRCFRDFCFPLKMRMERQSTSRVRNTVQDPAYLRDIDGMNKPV
Delta-type opioid receptor (Mus musculus), sequence (P32300 whole entry): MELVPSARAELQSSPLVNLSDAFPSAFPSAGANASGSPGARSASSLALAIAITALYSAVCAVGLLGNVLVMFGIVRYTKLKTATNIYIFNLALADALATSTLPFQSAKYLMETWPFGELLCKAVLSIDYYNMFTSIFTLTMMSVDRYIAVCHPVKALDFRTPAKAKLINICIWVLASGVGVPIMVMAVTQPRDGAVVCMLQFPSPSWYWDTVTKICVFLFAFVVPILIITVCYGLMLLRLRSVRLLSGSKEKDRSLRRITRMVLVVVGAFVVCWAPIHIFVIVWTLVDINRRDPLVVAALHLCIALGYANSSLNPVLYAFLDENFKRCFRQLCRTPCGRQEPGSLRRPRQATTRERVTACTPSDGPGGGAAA
Kappa-type opioid receptor, sequence (P41144 whole entry): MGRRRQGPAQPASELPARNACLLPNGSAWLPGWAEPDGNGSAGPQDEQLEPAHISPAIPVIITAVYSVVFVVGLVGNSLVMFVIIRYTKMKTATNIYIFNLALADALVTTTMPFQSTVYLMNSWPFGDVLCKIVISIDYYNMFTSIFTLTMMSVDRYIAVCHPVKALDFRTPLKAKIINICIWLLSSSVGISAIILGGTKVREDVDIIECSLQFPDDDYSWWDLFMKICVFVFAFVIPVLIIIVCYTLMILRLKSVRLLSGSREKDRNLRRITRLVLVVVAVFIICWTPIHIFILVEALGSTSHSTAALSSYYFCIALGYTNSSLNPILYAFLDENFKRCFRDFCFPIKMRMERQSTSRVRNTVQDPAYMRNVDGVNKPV

Take `CC(C)[C@H]1CN=C2C=C3N(CCc4ccccc4)CC[C@H](N(C)C)CN3[C@@H](Cc3ccc(O)cc3)CN21`: the Ki at Mu-type opioid receptor was 430 nM; in [1] it was 25 nM; in [2] it was 20 nM. For the same molecule, the Activity result was “Active; Comparable To Morphine And U50,489” with Mus musculus [3]; “Not active; No Significant Activity” in [4]; “Active; Weak Partial Agonism Observed” in data set [5]; 87.9% in the data set with Mus musculus [13]; 59.1% with Mus musculus [14]; 3.5% in the data set with Mus musculus [15]. Moreover, the Activity entry was “Time-dependent-effect” in the data set on Mus musculus [16], “Non-toxic” in data set [17], “Non-toxic” in data set [18] and “Non-toxic” in data set [19]. The result in data set [6] was Active. The outcome in the data set on Mus musculus [7], with Mus musculus [8] and in the data set with Mus musculus [9] was inactive. In addition, the values for the ED50 in the data set listed under Mus musculus [10] and in the data set on Mus musculus [11] were 14 mg/kg and 0.67 mg/kg, respectively. In [12], the “Ratio ED50” value is given as 20.95.
